What was measured:
HBV encapsidated pgRNA = test: Encapsidated pgRNA and total HBV RNAs (Northern blot); assay type: cell-based; settings: HepAD38 cells, BAY 41-4109 2 μM; for Effect on intracellular total HBV RNAs: C-18, C-39 5 μM; for Effect on HBV encapsidated pgRNA: C-18, C-39, C-19 5 μM, ETV 25 nM
HBc = HBc (Hepatitis B virus genotype D subtype ayw, UniProt P03146); test: Immunofluorescence of HBV core protein in HepAD38 cells; assay type: cell-based; settings: 3 days, BAY 41-4109 2 μM; for HBc localisation / aggregation: C-18 and C-39 5 μM
HBV [1] = test: Secreted HBV DNA in HepAD38 culture supernatant (RT-qPCR); assay type: cell-based; settings: HepAD38 cells; for EC50: 6 days, read-out: EC50 (secreted HBV DNA); for Residual HBV DNA level (secreted) relative to DMSO control: 20 μM compound
HBsAg = test: Secreted HBsAg ELISA; assay type: cell-based, HBV; settings: 6 days, ETV 25 nM, BAY 41-4109 2 μM
HBV capsid = HBV capsid (Hepatitis B virus genotype D subtype ayw, UniProt P03146); test: Intracellular HBV capsid formation; assay type: cell-based; settings: 6 days; for Effect on intracellular HBV capsid formation at single concentration: HepAD38 or HepG2-HBV1.3 cells, compounds 10 μM, ETV 25 nM, BAY 41-4109 2 μM
Cp149 protein = Cp149 protein (Hepatitis B virus genotype D subtype ayw, UniProt P03146); test: Cp149 capsid assembly in vitro, transmission electron microscopy; assay type: biochemical, HBV; settings: Cp149 5 μM dimer, 300 mM NaCl, 150 mM HEPES pH 7.5; BAY 41-4109 5 μM 3 days, C-39 20 μM 3 and 7 days
[2] = CCK-8 cytotoxicity assay in HepAD38 cells; assay type: cell-based, Human; settings: human, 6 days
HBV core DNA = test: Intracellular HBV core DNA (qPCR) and replicative intermediates (Southern blot); assay type: cell-based; settings: 6 days; for Effect on intracellular HBV core DNA: qPCR
HBV [3] = test: HepG2-NTCP de novo HBV infection model (viral markers, cccDNA Taq-Man qPCR); assay type: cell-based; settings: HepG2-NTCP cells, 5 μM
HBV 3.5 kb RNA = test: Intracellular HBV 3.5 kb RNA (RT-qPCR); assay type: cell-based; settings: 6 days
HBV [4] = test: Secreted HBV DNA in HepG2-HBV1.3 culture supernatant (RT-qPCR); assay type: cell-based; settings: HepG2-HBV1.3 cells
HBeAg = test: Secreted HBeAg ELISA; assay type: cell-based, HBV; settings: 6 days
[5] = CCK-8 cytotoxicity assay in HepG2-HBV1.3 (HepG2) cells; assay type: cell-based; settings: human

Sequence of HBV capsid (P03146 whole entry): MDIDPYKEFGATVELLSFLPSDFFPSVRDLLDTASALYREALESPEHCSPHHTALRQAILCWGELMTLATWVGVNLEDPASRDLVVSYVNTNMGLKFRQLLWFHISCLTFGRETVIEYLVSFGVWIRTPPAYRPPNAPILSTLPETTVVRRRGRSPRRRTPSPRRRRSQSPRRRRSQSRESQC
Sequence of HBc (P03146 whole entry): as above
Sequence of Cp149 protein (P03146 1-149): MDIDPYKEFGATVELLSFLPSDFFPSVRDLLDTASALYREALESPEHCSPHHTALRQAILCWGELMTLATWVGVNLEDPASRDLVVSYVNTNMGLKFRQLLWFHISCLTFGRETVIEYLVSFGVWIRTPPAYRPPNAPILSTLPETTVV

COC(=O)C1=C(C)NC(c2ncc(F)cc2F)=N[C@H]1c1ccc(F)cc1Cl [BAY 41-4109, reference compound]
Effect on intracellular total HBV RNAs (HBV encapsidated pgRNA): slight decrease
Effect on HBV encapsidated pgRNA (HBV encapsidated pgRNA): markedly downregulated
HBc localisation / aggregation (HBc): induced punctate HBc aggregation within the nucleus
HBc level by immunofluorescence (HBc; C-39 5 μM): significantly decreased the HBc level
EC50 (HBV [1]): 67 ± 10 nM
Effect on secreted HBsAg (HBsAg; HepAD38 cells): no impact on HBsAg production
Effect on secreted HBsAg (HBsAg; HepG2-HBV1.3 cells): no impact on HBsAg production
Effect on intracellular HBV capsid formation at single concentration (HBV capsid): dramatically inhibited capsid formation
Morphology of assembled Cp149 particles (TEM) (Cp149 protein): large irregular particles

Cc1onc(C(=O)Nc2ccc(F)c(F)c2)c1COc1cccc(C(F)(F)F)c1 [Compound C-1]
Residual HBV DNA level (secreted) relative to DMSO control (HBV [1]): 62%

O=C(Nc1ccc(F)c(F)c1)c1cc2nccc(-c3cccs3)n2n1 [Compound C-2]
Residual HBV DNA level (secreted) relative to DMSO control (HBV [1]): 44%

Cc1nnc2ccc(N3CCCC(C(=O)Nc4ccc(F)c(Cl)c4)C3)nn12 (centres unmarked) [Compound C-4]
Residual HBV DNA level (secreted) relative to DMSO control (HBV [1]): 21%

Nc1nc(N2C(=O)C3CC=CCC3C2=O)nn1-c1ccccc1 (centres unmarked) [Compound C-5]
Residual HBV DNA level (secreted) relative to DMSO control (HBV [1]): 51%

Cc1cc(O)c(C2=Nc3c(C(N)=O)cnn3C(c3cccc(Cl)c3)C2)c(=O)o1 (centres unmarked) [Compound C-6]
Residual HBV DNA level (secreted) relative to DMSO control (HBV [1]): 36%

O=C(CSc1nnc(-c2cccs2)n1CCc1ccccc1)Nc1ccc(F)cc1 [Compound C-7]
CC50 at 6 days [2]: > 100000 nM
SI (CC50/EC50) (HBV [1]): >54.7
EC50 (HBV [1]; Hepatitis B virus, 144 h): 1830 ± 440 nM
Effect on intracellular HBV capsid formation at single concentration (HBV capsid): moderate inhibition

COc1cccc(-c2noc([C@@H]3CCCN3C(=O)Nc3ccc(F)c(Cl)c3)n2)c1 [Compound C-9]
CC50 at 6 days [2]: 26600 ± 2000 nM
SI (CC50/EC50) (HBV [1]): 23.4
EC50 (HBV [1]; Hepatitis B virus, 144 h): 1140 ± 230 nM
Effect on intracellular HBV capsid formation at single concentration (HBV capsid): did not affect the capsid formation

Cc1cccc(NC(=O)c2ccc3nnc(SCC(=O)Nc4ccc(F)c(F)c4)n3c2)c1 [Compound C-16]
CC50 at 6 days [2]: 72400 ± 1900 nM
SI (CC50/EC50) (HBV [1]): 56.3
EC50 (HBV [1]; Hepatitis B virus, 144 h): 1290 ± 350 nM
Effect on intracellular HBV capsid formation at single concentration (HBV capsid): did not affect the capsid formation

Cc1cc2c(cc1S(=O)(=O)N1CCCC(C(=O)Nc3ccc(F)c(Cl)c3)C1)OC(C)C(=O)N2 (centres unmarked) [Compound C-18]
Effect on HBV replicative intermediates (HBV core DNA; HepAD38 cells, Southern blot): notably downregulated
Effect on intracellular HBV core DNA (HBV core DNA; HepAD38 cells): dramatic decrease
Effect on intracellular HBV core DNA (HBV core DNA; HepG2-HBV1.3 cells): downregulated
Effect on cccDNA formation, treatment together with viral inoculum (day 0) (HBV [3]): prevented the formation of cccDNA during the early postentry step
Effect on pre-established cccDNA, treatment 4 days after infection (day 4) (HBV [3]): minor effect
CC50 at 6 days [2]: 14800 ± 700 nM
Effect on intracellular total HBV RNAs (HBV encapsidated pgRNA): slight decrease
Effect on HBV encapsidated pgRNA (HBV encapsidated pgRNA): markedly downregulated
HBc localisation / aggregation (HBc): induced punctate HBc aggregation within the nucleus
Effect on intracellular HBV 3.5 kb RNA (HBV 3.5 kb RNA; HepAD38 cells): dramatic decrease
Effect on intracellular HBV 3.5 kb RNA (HBV 3.5 kb RNA; HepG2-HBV1.3 cells): downregulated
SI (CC50/EC50) (HBV [4]): 147.1
EC50 (HBV [4]; Hepatitis B virus, 144 h, 6 days): 140 nM
SI (CC50/EC50) (HBV [1]): 131.2
EC50 (HBV [1]; Hepatitis B virus, 144 h): 110 ± 30 nM
Effect on secreted HBeAg (HBeAg; HepAD38 cells): reduced the HBeAg level
Effect on secreted HBeAg (HBeAg; HepG2-HBV1.3 cells): downregulated
Effect on secreted HBsAg (HBsAg; HepAD38 cells): no impact on HBsAg
Effect on intracellular HBV capsid formation at single concentration (HBV capsid): strongly inhibited
Effect on intracellular HBV capsid formation, concentration series (HBV capsid; HepG2-HBV1.3 cells): downregulated
CC50 at 6 days [5]: 20600 nM
